Measured values: patent US9809537B2, “Glycosidase inhibitors and uses thereof” (Alectos Therapeutics Inc., priority 2012, dated 2017)

Tests used:
[1] = Apparent permeability (Papp), bi-directional transport; assay type: in vitro ADME; conditions: pig, LLC-PK1, t=3 h, average of A to B and B to A, read-out: Papp LLC-PK1 cells
Experimental: Assay for Determination of Apparent Permeability (Papp)
Bi-directional transport is evaluated in LLC-PK1 cells in order to determine apparent permeability (Papp). LLC-PK1 cells can form a tight monolayer and therefore can be used to assess vectorial transport of compounds from basolateral to apical (B→A) and from apical to basolateral (A→B).
To determine Papp, LLC-PK1 cells are cultured in 96-well transwell culture plates (Millipore). Solutions containing the test compounds (1 μM) are prepared in Hank's Balanced Salt Solution with 10 mM HEPES. Substrate solution (150 μL) is added to either the apical (A) or the basolateral (B) compartment of the culture plate, and buffer (150 μL) is added to the compartment opposite to that containing the compound. At t=3 h, 50 μL samples are removed from both sides of monolayers dosed with test compound and placed in 96 well plates, scintillant (200 μL) or internal standard (100 μL labetolol 1 μM) is added to the samples and concentration is determined by liquid scintillation counting in a MicroBeta Wallac Trilux scintillation counter (Perkin Elmer Life Sciences, Boston, Mass.) or by LCMS/MS (Applied Biosystems SCIEX API 5000 triple quadruple mass spectrometer). [^3H]Verapamil (1 μM) is used as the positive control. The experiment is performed in triplicate.
The apparent permeability, Papp, is calculated by the following formula for samples taken at t=3 h:
[formula] Where: Volume of Receptor Chamber is 0.15 mL; Area of membrane is 0.11 cm^2; the Initial Concentration is the sum of the concentration measured in the donor plus concentration measured in receiver compartments at t=3 h; A in Concentration is concentration in the receiver compartment at 3 h; and A in Time is the incubation time (3×60×60=10800 s). Papp is expressed as 10^−6 cm/s. The Papp (LLC-PK1 cells) are the average of the Papp for transport from A to B and Papp for transport from B to A at t=3 h: […]

human O-GlcNAcase = molecular target: T1, human O-GlcNAcase (Homo sapiens, UniProt O60502); experiment: Fluorescence-based assay for KI values for inhibition of O-GlcNAcase activity; assay type: biochemical; conditions: purified human O-GlcNAcase, 4-methylumbelliferyl GlcNAc substrate, pH 7.0, Cheng-Prusoff; read-out: Fluorescence-based hOGA Ki
T1 sequence (O60502 1-916): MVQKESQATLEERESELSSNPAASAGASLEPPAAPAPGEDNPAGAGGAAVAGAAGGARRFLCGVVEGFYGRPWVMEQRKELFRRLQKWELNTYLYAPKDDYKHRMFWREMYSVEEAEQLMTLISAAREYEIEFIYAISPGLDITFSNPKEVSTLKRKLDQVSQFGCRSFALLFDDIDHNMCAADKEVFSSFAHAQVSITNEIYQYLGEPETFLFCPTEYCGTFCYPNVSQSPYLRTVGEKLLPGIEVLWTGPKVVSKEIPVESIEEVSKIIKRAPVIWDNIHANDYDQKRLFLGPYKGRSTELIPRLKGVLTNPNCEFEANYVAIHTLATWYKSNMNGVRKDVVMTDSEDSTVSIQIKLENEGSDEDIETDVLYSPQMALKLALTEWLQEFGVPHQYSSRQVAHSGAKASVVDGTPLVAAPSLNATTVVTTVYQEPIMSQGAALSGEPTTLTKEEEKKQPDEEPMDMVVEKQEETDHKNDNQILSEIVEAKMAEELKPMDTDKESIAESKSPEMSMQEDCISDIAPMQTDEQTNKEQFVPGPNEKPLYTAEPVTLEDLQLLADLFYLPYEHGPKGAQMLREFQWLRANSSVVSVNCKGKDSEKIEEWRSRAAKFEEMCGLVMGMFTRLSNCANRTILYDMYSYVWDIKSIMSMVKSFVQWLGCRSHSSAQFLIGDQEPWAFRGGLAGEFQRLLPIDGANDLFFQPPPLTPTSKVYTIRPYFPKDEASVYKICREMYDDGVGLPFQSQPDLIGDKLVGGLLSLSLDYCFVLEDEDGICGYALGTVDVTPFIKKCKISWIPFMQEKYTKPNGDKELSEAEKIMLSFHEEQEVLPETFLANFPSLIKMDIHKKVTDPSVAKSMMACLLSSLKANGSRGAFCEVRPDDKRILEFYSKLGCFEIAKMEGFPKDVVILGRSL
Experimental: Assay for Determination of KI Values for Inhibition of O-GlcNAcase Activity
Experimental Procedure for Kinetic Analyses:
Enzymatic reactions were carried out in a reaction containing 50 mM NaH2PO4, 100 mM NaCl and 0.1% BSA (pH 7.0) using 2 mM 4-Methylumbelliferyl N-acetyl-β-D-glucosaminide dihydrate (Sigma M2133) dissolved in ddH2O, as a substrate. The amount of purified human O-GlcNAcase enzyme used in the reaction was 0.7 nM. Test compound of varying concentrations was added to the enzyme prior to initiation of the reaction. The reaction was performed at room temperature in a 96-well plate and was initiated with the addition of substrate. The production of fluorescent product was measured every 60 sec for 45 min with a Tecan Infinite M200 plate-reader with excitation at 355 nm and emission detected at […], with 4-Methylumbelliferone (Sigma M1381) used to produce a standard curve. The slope of product production was determined for each concentration of compound tested and plotted, using standard curve fitting algorithms for sigmoidal dose response curves. The values for a four parameter logistic curve fit of the data were determined.
KI values were determined using the Cheng-Prusoff equation; the Km of O-GlcNAcase for substrate was 0.2 mM.

- Papp at 3 h, 1 μM [1]: 5 ×10⁻⁶ cm/s
- Ki (human O-GlcNAcase): 16 nM
SMILES: CC(=O)NC[C@@H]1[C@@H](O)[C@H](O)[C@@H](CO)N1CCCc1ccc(-c2ccccc2)cc1 [Example 3, N-(((2R,3R,4R,5R)-1-(3-([1,1′-biphenyl]-4-yl)propyl)-3,4-dihydroxy-5-(hydroxymethyl)pyrrolidin-2-yl)methyl)acetamide]
